pKi: −log10 of the molar value.

Assay [1] concerns the target T1, H1 histaminergic receptors (Homo sapiens, UniProt P35367).
T1 construct: expressed in transfected cells; host or cells: HEK-293 cells
Kind of assay: Radioligand binding assay, histaminergic H1 receptors. As to conditions: human recombinant (HEK-293 cells), [3H]pyrilamine 1 nM. From the text:
(§1) The specific ligand binding to the receptors is defined as the difference between the total binding and the non-specific binding determined in the presence of the excess of unlabelled ligand.
(§2) The results are expressed as a percent of control specific binding ((measured specific binding/control specific binding)×100) and as a percent inhibition of control specific binding (100−((measured specific binding/control specific binding)×100)) obtained in the presence of the test compounds. The specific ligand binding to the receptors is defined as the difference between the total binding and the nonspecific binding determined in the presence of an excess of unlabelled ligand. Scintillation counting was the method of detection of ligand binding. The IC50 values (concentration causing a half-maximal inhibition of control specific binding) were determined by non-linear regression analysis of the competition curves generated with mean replicate values using Hill equation curve fitting (Y=D+[(A−D)/(1+(C/C50)nH)], where Y=specific binding, D=minimum specific binding, A=maximum specific binding, C=compound concentration, C50=IC50, and nH=slope factor). This analysis was performed using a software developed at Cerep (Hill software) and validated by comparison with data generated by the commercial software SigmaPlot® 4.0 for Windows® (© 1997 by SPSS Inc.). The inhibition constants (Ki) were calculated using the Cheng Prusoff equation (Ki=IC50/(1+(L/KD)), where L=concentration of radioligand in the assay, and KD=affinity of the radioligand for the receptor). A scatchard plot was used to determine the Kd.
Experimental conditions for tests are given in Table 14, and results of tests for representative compounds are presented in Table 15.

Assay [2] addresses dopaminergic receptors D2 (Homo sapiens, UniProt P14416). Description: Radioligand binding assay, dopaminergic D2 receptors. The note with it: for inhibition at 1 µM: binding assay, test compound 1×10^−6 M; for pKi: read-out: Inhibition constants Ki for D2 receptors, D2. Put shortly:
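Total binding is counted by scintillation and non-specific binding subtracted using an excess of unlabelled ligand. IC50 comes from a Hill-equation fit with slope factor; Ki follows Cheng–Prusoff.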

A further assay has as its target T2, 5-HT2A receptor (Homo sapiens, UniProt P28223).
T2 construct: purchased PerkinElmer
Description: Radioligand binding assay, serotoninergic 5-HT2A receptors. As to conditions: for inhibition at 1 µM: binding assay result in %, Table 5a; for pKi: read-out: Inhibition constants Ki, 5-HT2A. An outline of the steps:
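Radioligand competition binding with scintillation counting; nonspecific binding defined by excess unlabelled ligand. Data as percent inhibition of control specific binding. IC50 by Hill-equation fit of competition curves; Ki by Cheng-Prusoff, with radioligand Kd from Scatchard plot.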

Assay [3] relates to α1 adrenergic receptors (rat cerebral cortex). Description: Radioligand binding assay, adrenergic α1 receptors. The note with it: test compound 1×10^−6 M. An outline of the steps: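 Values derive from radioligand displacement, with non-specific binding defined by excess cold ligand and detection by scintillation. Hill-fit IC50s were converted to Ki via Cheng-Prusoff using Scatchard-derived Kd; percent inhibition of control specific binding also reported.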

The target of assay [4] is T3, 5-HT1A receptor (rat hippocampus) (Rattus norvegicus, UniProt P19327).
T3 construct: hippocampus; from tissue; host or cells: rat hippocampus
T3 sequence (P19327 1-422): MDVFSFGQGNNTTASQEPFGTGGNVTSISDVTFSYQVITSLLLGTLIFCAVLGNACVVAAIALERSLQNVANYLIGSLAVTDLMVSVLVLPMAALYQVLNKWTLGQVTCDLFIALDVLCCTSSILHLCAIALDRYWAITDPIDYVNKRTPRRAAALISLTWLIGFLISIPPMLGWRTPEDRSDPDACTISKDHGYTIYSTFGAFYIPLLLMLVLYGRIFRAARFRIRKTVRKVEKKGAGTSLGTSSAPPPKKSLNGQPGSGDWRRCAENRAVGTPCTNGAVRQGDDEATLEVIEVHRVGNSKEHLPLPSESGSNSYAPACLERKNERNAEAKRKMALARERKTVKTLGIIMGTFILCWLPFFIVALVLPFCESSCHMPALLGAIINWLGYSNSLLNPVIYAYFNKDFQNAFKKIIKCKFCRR
Kind of assay: Radioligand binding assay, serotoninergic 5-HT1A receptors. As to conditions: binding assay result in %, Table 5a.

In a further assay the target is T4, M3 muscarinic receptors (Homo sapiens, UniProt P20309).
T4 construct: expressed in transfected cells; host or cells: CHO cells
T4 sequence (P20309 whole entry): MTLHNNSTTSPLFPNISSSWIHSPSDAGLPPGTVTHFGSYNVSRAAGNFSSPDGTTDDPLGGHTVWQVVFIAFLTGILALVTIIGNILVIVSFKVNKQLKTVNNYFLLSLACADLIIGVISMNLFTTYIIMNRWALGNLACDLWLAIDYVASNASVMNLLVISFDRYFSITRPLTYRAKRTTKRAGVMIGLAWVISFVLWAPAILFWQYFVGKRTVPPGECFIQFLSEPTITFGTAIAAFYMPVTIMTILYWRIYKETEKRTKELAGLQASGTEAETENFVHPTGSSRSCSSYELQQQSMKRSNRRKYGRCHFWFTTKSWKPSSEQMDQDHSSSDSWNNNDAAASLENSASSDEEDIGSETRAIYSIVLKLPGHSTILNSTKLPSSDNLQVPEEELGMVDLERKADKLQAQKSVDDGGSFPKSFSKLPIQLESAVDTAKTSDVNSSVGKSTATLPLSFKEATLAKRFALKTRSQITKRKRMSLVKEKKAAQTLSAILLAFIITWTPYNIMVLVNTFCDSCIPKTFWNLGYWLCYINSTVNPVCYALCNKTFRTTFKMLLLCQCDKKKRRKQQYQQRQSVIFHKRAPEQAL
Kind of assay: Radioligand binding assay, muscarinic M3 receptors. As to conditions: test compound 1×10^−6 M.
Description: as §1, §2
Experimental conditions for tests are given in Table 10, and results of tests for representative compounds are given in Table 11.

Assay [5] addresses T5, serotonin transporter (SERT) (Homo sapiens, UniProt P31645).
T5 construct: expressed in transfected cells; host or cells: CHO cells
Kind of assay: Radioligand binding assay, serotonin transporter (SERT). As to conditions: binding assay, test compound 1×10^−6 M. An outline of the steps:
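Radioligand competition binding with scintillation detection; specific binding is total minus binding under excess unlabelled ligand. Reported as % of control specific binding or % inhibition; IC50 from Hill-equation non-linear regression of competition curves, and Ki via Cheng-Prusoff using radioligand concentration and Scatchard-derived KD.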

Assay [6] deals with dopaminergic receptors D3 (Homo sapiens, UniProt P35462). Kind of assay: Radioligand binding assay, dopaminergic D3 receptors. As to conditions: test compound 1×10^−6 M. Put shortly:
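Competition radioligand binding at human D2, D3 and D4.4 receptors, detected by scintillation counting; nonspecific binding defined with excess unlabelled ligand. Results as percent inhibition of control specific binding; IC50 by Hill-equation nonlinear regression; Ki via Cheng-Prusoff, with radioligand KD from Scatchard plot.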

For the next assay, the target named is T6, 5-HT2C receptor (Homo sapiens, UniProt P28335).
T6 construct: expressed in transfected cells; host or cells: HEK-293 cells
T6 sequence (P28335 33-458): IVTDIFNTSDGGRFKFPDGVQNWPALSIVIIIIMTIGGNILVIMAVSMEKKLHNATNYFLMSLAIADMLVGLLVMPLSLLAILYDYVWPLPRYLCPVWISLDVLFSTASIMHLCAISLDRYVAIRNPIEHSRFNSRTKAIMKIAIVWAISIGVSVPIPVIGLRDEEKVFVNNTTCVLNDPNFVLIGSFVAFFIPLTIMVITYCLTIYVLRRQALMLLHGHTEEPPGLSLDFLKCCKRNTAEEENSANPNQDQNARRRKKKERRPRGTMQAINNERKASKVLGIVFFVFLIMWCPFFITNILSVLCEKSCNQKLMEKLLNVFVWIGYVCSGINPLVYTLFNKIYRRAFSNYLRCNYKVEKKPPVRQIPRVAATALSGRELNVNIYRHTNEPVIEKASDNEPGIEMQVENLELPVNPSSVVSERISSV
Description: Radioligand binding assay, serotoninergic 5-HT2C receptors. The note with it: test compound 1×10^−6 M.
Description: as §1, §2
Experimental conditions for tests are given in Table 4, and results of tests for representative compounds of the invention are given in Table 5a and 5b (receptors 5-HT1A, 5-HT2A, 5-HT6 and 5-HT7) and in Table 6 (receptors 5-HT2C).

dopaminergic receptors D2, sequence (P14416 whole entry): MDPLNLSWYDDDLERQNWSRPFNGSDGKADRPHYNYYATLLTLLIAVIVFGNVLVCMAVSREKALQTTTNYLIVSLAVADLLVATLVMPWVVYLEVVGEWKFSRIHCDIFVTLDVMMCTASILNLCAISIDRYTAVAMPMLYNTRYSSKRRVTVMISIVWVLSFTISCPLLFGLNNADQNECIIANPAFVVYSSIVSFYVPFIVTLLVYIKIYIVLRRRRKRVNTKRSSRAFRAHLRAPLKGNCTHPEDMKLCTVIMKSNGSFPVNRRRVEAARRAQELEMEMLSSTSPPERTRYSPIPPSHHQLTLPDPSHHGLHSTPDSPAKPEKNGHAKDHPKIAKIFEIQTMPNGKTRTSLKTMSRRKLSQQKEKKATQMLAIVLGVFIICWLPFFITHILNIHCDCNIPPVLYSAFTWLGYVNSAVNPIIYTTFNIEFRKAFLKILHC
T1 sequence (P35367 whole entry): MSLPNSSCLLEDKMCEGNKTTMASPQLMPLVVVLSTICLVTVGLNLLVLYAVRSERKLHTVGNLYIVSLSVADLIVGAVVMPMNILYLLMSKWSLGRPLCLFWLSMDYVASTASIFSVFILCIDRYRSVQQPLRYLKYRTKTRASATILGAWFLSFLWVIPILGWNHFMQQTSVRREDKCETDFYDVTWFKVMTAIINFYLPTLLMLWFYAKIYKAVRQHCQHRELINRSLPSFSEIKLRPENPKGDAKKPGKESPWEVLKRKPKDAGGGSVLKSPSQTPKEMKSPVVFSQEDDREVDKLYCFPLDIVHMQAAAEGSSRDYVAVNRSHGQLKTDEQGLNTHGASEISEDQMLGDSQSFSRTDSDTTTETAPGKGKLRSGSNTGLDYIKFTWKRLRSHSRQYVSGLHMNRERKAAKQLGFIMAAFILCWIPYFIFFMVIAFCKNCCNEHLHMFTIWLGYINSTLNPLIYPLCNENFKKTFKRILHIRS
dopaminergic receptors D3, sequence (P35462 whole entry): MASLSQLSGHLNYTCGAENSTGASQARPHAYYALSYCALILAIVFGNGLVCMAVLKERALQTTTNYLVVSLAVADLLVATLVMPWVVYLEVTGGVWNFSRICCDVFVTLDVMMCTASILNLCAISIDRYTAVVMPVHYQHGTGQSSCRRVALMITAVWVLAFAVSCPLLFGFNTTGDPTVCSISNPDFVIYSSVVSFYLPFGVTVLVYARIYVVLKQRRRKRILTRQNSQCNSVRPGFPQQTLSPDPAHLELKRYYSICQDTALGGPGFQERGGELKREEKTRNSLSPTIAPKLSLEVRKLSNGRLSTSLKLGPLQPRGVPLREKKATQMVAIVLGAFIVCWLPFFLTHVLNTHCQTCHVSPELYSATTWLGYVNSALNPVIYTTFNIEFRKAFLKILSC
T2 sequence (P28223 whole entry): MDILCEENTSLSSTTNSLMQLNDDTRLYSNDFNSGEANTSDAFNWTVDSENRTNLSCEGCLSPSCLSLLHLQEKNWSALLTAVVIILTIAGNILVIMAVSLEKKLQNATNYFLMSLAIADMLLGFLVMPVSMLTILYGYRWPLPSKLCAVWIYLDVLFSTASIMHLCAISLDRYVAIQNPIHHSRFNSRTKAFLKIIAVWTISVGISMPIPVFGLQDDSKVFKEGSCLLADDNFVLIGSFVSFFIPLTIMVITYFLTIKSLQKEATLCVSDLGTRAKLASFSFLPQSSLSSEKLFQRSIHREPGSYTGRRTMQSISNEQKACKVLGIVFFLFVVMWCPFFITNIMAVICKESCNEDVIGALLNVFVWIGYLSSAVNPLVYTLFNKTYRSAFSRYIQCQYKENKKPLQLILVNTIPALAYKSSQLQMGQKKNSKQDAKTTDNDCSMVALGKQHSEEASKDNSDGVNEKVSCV
T5 sequence (P31645 whole entry): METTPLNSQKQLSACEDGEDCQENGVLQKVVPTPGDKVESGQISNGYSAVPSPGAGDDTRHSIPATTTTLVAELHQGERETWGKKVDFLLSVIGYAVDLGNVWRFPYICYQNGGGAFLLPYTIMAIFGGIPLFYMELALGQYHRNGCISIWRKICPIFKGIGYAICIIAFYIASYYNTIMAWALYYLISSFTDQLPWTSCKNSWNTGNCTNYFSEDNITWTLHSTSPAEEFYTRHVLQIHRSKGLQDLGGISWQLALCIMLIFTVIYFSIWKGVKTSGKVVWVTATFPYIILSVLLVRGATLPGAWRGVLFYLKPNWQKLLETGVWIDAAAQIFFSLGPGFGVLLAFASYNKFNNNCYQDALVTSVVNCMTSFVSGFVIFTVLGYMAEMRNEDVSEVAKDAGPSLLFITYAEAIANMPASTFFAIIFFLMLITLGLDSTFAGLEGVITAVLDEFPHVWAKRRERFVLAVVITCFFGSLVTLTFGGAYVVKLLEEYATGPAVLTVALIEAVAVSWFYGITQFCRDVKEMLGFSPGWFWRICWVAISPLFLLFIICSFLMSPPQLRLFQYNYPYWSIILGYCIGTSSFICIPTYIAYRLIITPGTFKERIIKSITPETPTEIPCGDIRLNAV

As usually defined, the inhibition is the drop in the measured response relative to a control, in per cent. Broadly, the pKi is the negative decadic logarithm of the Ki, by convention in mol/L. Regarding `O=S(=O)(N[C@@H]1CCN(CCCc2noc3cc(F)ccc23)C1)c1cc2ccccc2s1` [Compound 196, N-[(3R)-1-[3-(6-Fluoro-1,2-benzoxazol-3-yl)propyl]pyrrolidin-3-yl]benzo-thiophene-2-sulphonamide], the inhibition at 1 µM in assay [1] amounted to 84%; in assay [2] it was 100%; at 5-HT2A receptor, 100%; in [4] it was 54%; on M3 muscarinic receptors, 11%; in assay [5] it was 42%. Also, the inhibition at 1 µM was 94% in assay [6] and 86% at 5-HT2C receptor. The pKi in [2] is 9.10; at 5-HT2A receptor, 9.40. Moreover, in [3], the “α1 [%]” value amounted to 95%.

For `O=S(=O)(N[C@H]1CCN(CCCc2noc3cc(F)ccc23)C1)c1cc2ccccc2s1` [Compound 197, N-[(3S)-1-[3-(6-Fluoro-1,2-benzoxazol-3-yl)propyl]pyrrolidin-3-yl]benzo-thiophene-2-sulphonamide], the inhibition at 1 µM was found to be 76% in assay [1]; 101% in assay [2]; 99% at 5-HT2A receptor; 56% in assay [4]; 26% at M3 muscarinic receptors; 58% in [5]. Moreover, the values for the inhibition at 1 µM (in assay [6]; at 5-HT2C receptor) were 83% and 84%, respectively. The pKi in [2] is 8.24; on 5-HT2A receptor, 9.15. Also, in assay [3], the “α1 [%]” value stood at 93%.

Take `O=S(=O)(N[C@H]1CCN(CCCc2noc3cc(F)ccc23)C1)c1ccc2cc(Cl)ccc2c1` [Compound 201, 6-Chloro-N-[(3S)-1-[3-(6-fluoro-1,2-benzoxazol-3-yl)propyl]pyrrolidin-3-yl]naphthalene-2-sulphonamide]: the inhibition at 1 µM turned out to be 64% in [1]; 99% in assay [2]; 98% at 5-HT2A receptor; 32% in [4]; 9% on M3 muscarinic receptors; 59% in assay [5]. Moreover, the inhibition at 1 µM is 84% in assay [6] and 72% at 5-HT2C receptor. Also, the pKi in [2] is 7.82; on 5-HT2A receptor, 8.15. In addition, the “α1 [%]” value in assay [3] was 82%.

As to `Cc1c(S(=O)(=O)N[C@H]2CCN(CCCc3noc4cc(F)ccc34)C2)sc2ccc(F)cc12` [Compound 203, 5-Fluoro-N-[(3S)-1-[3-(6-fluoro-1,2-benzoxazol-3-yl)propyl]pyrrolidin-3-yl]-3-methyl-benzothiophene-2-sulphonamide], the inhibition at 1 µM in assay [1] was 67%; in assay [2], 101%; at 5-HT2A receptor it was 99%; in [4], 60%; at M3 muscarinic receptors it was 12%; in [5], 73%. The inhibition at 1 µM stood at 95% in [6] and 90% at 5-HT2C receptor. In addition, the results for the pKi (in assay [2]; on 5-HT2A receptor) were 9.05 and 9.15, respectively. Besides, the “α1 [%]” value in assay [3] stood at 91%.

Take `O=S(=O)(NC1CCN(CCCc2noc3cc(F)ccc23)C1)c1cc2ccc(F)cc2s1` (centres unmarked) [Compound 234, 6-Fluoro-N-[1-[3-(6-fluoro-1,2-benzoxazol-3-yl)propyl]pyrrolidin-3-yl]benzothiophene-2-sulphonamide]: the inhibition at 1 µM in [1] came out at 75%; in assay [2], 99%; at 5-HT2A receptor, 100%; in assay [4], 45%; on M3 muscarinic receptors, 17%; in [5], 65%. Besides, the inhibition at 1 µM amounted to 94% in [6] and 86% on 5-HT2C receptor. Besides, the “α1 [%]” value in [3] was 92%.

For the compound `O=S(=O)(NCC1CCN(CCOc2cccc3c2OCCO3)C1)c1ccc(C(F)(F)F)cc1` (centres unmarked) [Compound 293, N-[[1-[2-(2,3-Dihydro-1,4-benzodioxin-5-yloxy)ethyl]pyrrolidin-3-yl]methyl]-4-(trifluoromethyl)benzenesulphonamide], the inhibition at 1 µM in [1] worked out at 38%; in assay [2], 66%; on 5-HT2A receptor, 86%; in assay [4], 100%; at M3 muscarinic receptors, 10%; in [5], 82%. The results for the inhibition at 1 µM (in [6]; on 5-HT2C receptor) were 60% and 50%, respectively. Further, the “α1 [%]” value in [3] is given as 77%.

Regarding `O=S(=O)(NCC1CCN(CCOc2cccc3c2OCCO3)C1)c1cccc(F)c1` (centres unmarked) [Compound 298, N-[[1-[2-(2,3-Dihydro-1,4-benzodioxin-5-yloxy)ethyl]pyrrolidin-3-yl]-methyl]-3-fluoro-benzenesulphonamide], the inhibition at 1 µM is 40% in [1]; 52% in assay [2]; 88% on 5-HT2A receptor; 97% in assay [4]; 22% at M3 muscarinic receptors; 72% in assay [5]. Also, the inhibition at 1 µM in assay [6] amounted to 35%; on 5-HT2C receptor it was 37%. In assay [3], the “α1 [%]” value was 77%.

Regarding `O=S(=O)(NCC1CCN(CCOc2cccc3c2OCCO3)C1)c1ccc(F)cc1` (centres unmarked) [Compound 300, N-[[1-[2-(2,3-Dihydro-1,4-benzodioxin-5-yloxy)ethyl]pyrrolidin-3-yl]-methyl]-4-fluoro-benzenesulphonamide], the inhibition at 1 µM in [1] was 28%; in assay [2] it was 35%; on 5-HT2A receptor, 72%; in assay [4] it was 99%; on M3 muscarinic receptors, -2%; in [5], 64%. For the same compound, the results for the inhibition at 1 µM (in assay [6]; at 5-HT2C receptor) were 30% and 34%, respectively. Besides, the “α1 [%]” value in assay [3] stood at 83%.

Values taken from patent US20140135310A1, “SULPHONAMIDE DERIVATIVES OF ALICYCLIC AMINES FOR THE TREATMENT OF CENTRAL NERVOUS SYSTEM DISEASES” (Adamed Sp. z o.o., priority 2011, published 2014).
